Consider one compound from paper PMC8942544, “Design and synthesis of benzodiazepines as brain penetrating PARP-1 inhibitors” (Journal of Enzyme Inhibition and Medicinal Chemistry, 2022).

What is called IC50 is the concentration at which inhibition is half-maximal. A low value points to greater potency. In general, inhibition refers to the drop in the measured response relative to a control, in per cent. Low values mean a response near the control, high ones a response far below the control. A word on the Papp A→B: it is the apparent permeability from the apical to the basolateral side of a cell layer. Read a low Papp A→B as slow passage.

Read-outs that look alike come from different tables or passages of the source.

In one data set the target is T1, PARP-1 (Homo sapiens, UniProt P09874).
T1 construct: purchased BPS Bioscience 80580
T1 sequence (P09874 whole entry): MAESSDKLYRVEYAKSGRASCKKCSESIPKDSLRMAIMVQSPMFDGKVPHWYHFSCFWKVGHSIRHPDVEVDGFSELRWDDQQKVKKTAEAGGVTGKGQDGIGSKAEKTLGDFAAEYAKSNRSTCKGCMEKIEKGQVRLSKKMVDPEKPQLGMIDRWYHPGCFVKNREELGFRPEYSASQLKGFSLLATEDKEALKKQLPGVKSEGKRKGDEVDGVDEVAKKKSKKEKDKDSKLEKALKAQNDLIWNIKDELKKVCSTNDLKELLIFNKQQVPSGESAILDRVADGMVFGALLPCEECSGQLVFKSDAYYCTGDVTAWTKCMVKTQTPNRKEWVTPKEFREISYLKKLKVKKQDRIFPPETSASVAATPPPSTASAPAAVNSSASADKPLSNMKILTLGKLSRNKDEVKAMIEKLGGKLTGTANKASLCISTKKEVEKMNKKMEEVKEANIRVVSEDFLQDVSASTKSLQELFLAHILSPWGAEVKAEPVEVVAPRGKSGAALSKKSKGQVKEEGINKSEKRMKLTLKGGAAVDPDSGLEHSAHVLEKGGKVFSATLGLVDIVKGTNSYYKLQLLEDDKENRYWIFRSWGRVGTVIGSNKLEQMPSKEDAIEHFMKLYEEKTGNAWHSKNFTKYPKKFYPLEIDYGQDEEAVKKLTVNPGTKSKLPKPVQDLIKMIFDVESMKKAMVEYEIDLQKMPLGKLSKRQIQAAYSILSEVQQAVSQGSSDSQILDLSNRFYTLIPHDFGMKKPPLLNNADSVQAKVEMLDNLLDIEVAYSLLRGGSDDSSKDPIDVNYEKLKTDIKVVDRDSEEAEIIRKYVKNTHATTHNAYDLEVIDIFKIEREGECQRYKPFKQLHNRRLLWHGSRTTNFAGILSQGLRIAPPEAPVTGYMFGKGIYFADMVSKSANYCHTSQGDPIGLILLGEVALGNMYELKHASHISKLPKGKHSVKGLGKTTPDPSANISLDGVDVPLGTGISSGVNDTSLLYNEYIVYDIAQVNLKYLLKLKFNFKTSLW
Nature of the data set: PARP-1 enzyme inhibition assay (BPS Bioscience PARP Colorimetric Assay Kit). In kind it is biochemical. The protocol: All target compounds were evaluated for PARP-1 enzyme inhibition activity at the concentration of 50 nM determined by previous pre-experiments.
The ability of the compounds to inhibit PARP-1 enzyme activity was assessed using BPS Bioscience's PARP Colorimetric Assay Kit (BPS Bioscience, Catalog # 80580). PARP-1 is known to catalyse the NAD-dependent addition of poly(ADP-ribose) to histones. The PARP-1 assay kit comes in a convenient 96-well format, with purified PARP-1 enzyme, histone mixture, activated DNA, and PARP-1 assay buffer. The key to the PARP-1 Colorimetric Activity Assay is the biotinylated substrate. With this kit, only three simple steps are required for PARP-1 reactions. First, histone proteins are coated on a 96-well plate. Next, the PARP-1 biotinylated substrate is incubated with an assay buffer that contains the PARP-1 enzyme. Finally, the plate is treated with streptavidin-HRP followed by the addition of the colorimetric HRP substrate to produce colour that can then be measured using a UV/Vis spectrophotometer microplate reader. IC50 values were calculated using GraphPad Prism5 software.

A further data set deals with PARP-2 (Homo sapiens, UniProt Q9UGN5). Nature of the data set: PARP-2 enzyme inhibition (IC50). Type of data set: biochemical. The source says:
PARP-2 is the closest homolog of PARP-1, which also resides in the nucleus and functions similarly to PARP-1.

For data set [1], the system named is MX-1 (BRCA1 mutant tumour cells). Description: MTT antiproliferation assay, MX-1 cells. In kind it is cell-based. The note with it: Homo sapiens, MX1, breast cancer cell line, 48 h. The protocol: (§1) Due to their acceptable inhibition rates (more than 50%) at the concentration of 50 nM, compounds H34, H42, H48, H50, and H52 were selected to evaluate the proliferation inhibition activity on several cancer cells, including BRCA1 mutant tumour cells (MX-1) and BRCA1 wild type tumour cells (MCF7 and A549).
(§2) The MTT assay was performed to detect the sensitivity of cells to anticancer drugs in vitro. The human A549, MCF7, and U87 tumour cells, as well as human BRCA mutant tumour cells (MX-1), were tested in this study. The cell culture was carried out in accordance with routine operations or instructions. Briefly, 5,000 cells were seeded in each well of a 96-well plate. After cell attachment to the bottom of the well, different concentrations of tested compounds were added into designated wells. After 48 h of incubation, 20 µL of MTT solution (5 mg/mL) were added to each well for cell staining. After 4 h, the media were removed and 150 µL of DMSO were added to each well. Finally, the absorbance was determined at 570 nm using a multifunctional microplate reader (TECAN).
For orientation: Tetrazolium assays rely on reduction of a dye to a coloured formazan, in cell work by metabolically active cells.

Another data set deals with MCF7 cells. Nature of the data set: MTT antiproliferation assay, MCF7 cells. Type of data set: cell-based. As to conditions: Homo sapiens, breast cancer cell line, 48 h. On the procedure: as §1, §2
The next data set deals with A549 cells. Description: MTT antiproliferation assay, A549 cells. Type of data set: cell-based. As to conditions: Homo sapiens, lung cancer cell line, 48 h. On the procedure: as §1, §2
The subject of the next data set is glioblastoma (U87) cells. Nature of the data set: Antiproliferation in combination with TMZ, U87 cells. Type of data set: cell-based, human. As to conditions: combination with Temozolomide. The protocol: as §2
Data set [2] in a line: Brain/plasma pharmacokinetic study in vivo. As to conditions: ICR mice. The protocol: Further, the brain permeability of representative compounds was evaluated in ICR mice. After tail vein injection of a 1.5 mg/kg dose, the concentrations of the compounds in the brain and plasma were measured after 5 min and 60 min of administration, and the brain/plasma (B/P) ratio was calculated. […] On the contrary, compounds H42 and H52 performed high B/P ratios, which were consistent with our initial expectations. Among them, the B/P ratio of H42 reached balance rapidly in vivo and maintained above 3, while the proportion of H52 in the brain increased gradually and reached 4.41 at 60 min.
All animal experiments were complied with the ARRIVE guidelines and were carried out in accordance with the U.K. Animals Act, 1986 and associated guidelines. The ICR mice were used in plasma–brain distribution assay of compounds. After tail vein injection of a 1.5 mg/kg dose, the concentrations of the compounds in the brain and plasma were measured after 5 min and 60 min of administration, and the brain/plasma (B/P) ratio was calculated. The samples of plasma and brain tissue were prepared as previously reported. An established LC-MS/MS method was used for determining the concentration of representative compounds in plasma and brain tissue.

Data set [3] concerns MDCK cells monolayer model. The note with it: dog, 3 h, 10 µM.
Another data set is described as follows: in vitro. The note with it: dog, MDCK.

Chain of PARP-2 (Q9UGN5 whole entry): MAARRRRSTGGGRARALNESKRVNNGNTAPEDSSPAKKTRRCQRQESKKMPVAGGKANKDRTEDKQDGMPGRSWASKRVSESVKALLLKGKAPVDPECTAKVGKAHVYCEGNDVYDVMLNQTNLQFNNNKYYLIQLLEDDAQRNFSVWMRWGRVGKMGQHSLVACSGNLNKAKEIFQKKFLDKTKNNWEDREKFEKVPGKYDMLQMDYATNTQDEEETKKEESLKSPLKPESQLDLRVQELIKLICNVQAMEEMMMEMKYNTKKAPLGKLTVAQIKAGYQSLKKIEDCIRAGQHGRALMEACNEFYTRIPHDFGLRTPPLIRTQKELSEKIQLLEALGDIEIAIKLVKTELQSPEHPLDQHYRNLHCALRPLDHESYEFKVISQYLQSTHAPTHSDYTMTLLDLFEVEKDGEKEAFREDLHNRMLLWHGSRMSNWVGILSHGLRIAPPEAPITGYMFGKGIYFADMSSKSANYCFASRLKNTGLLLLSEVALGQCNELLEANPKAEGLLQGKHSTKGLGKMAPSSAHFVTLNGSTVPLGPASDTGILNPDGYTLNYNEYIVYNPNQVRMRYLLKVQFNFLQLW

Take `O=C1NCC(c2ccc(-c3ccc(C(F)(F)F)cc3)cc2)Nc2ccccc21` (centres unmarked) [Compound H52, 2-(4′-(Trifluoromethyl)-[1,1′-biphenyl]-4-yl)-1,2,3,4-tetrahydro-5H-benzo[e][1,4]diazepin-5-one]: the IC50 against PARP-1 amounted to 0.0302 µM; at PARP-2, 0.0396 µM; in [1] it was 24.6 ± 3.7 µM; with MCF7 cells, 37.9 ± 3.5 µM; in the data set on A549 cells, 157 ± 15.2 µM. This compound displayed an inhibition at 0.05 µM at PARP-1 (compound concentration 50 nM, three independent tests) greater than 50%. Moreover, the “Sensitisation effect in combination with TMZ” value in the data set with glioblastoma (U87) cells was “significant sensitisation effects”. For the same compound, the B/P ratio in data set [2] (60 min after tail vein injection of 1.5 mg/kg, 1.5 mg/kg) was found to be 4.41 ± 0.07 fold. Further, the concentration at 5 min is 1570 ± 264 ng/g in data set [2] (mouse, brain, intravenous, 5 min after tail vein injection of 1.5 mg/kg, read-out: Brain) and 719 ± 39.9 ng/mL in [2] (mouse, plasma, intravenous, 5 min after tail vein injection of 1.5 mg/kg, read-out: Plasma). The concentration at 60 min in data set [2] (mouse, brain, intravenous, 60 min after tail vein injection of 1.5 mg/kg, read-out: Brain) is 2630 ± 118 ng/g; in [2] (mouse, plasma, intravenous, 60 min after tail vein injection of 1.5 mg/kg, read-out: Plasma), 597 ± 25 ng/mL. The Kp at 5 min in data set [2] (mouse, brain/plasma, intravenous, 5 min after tail vein injection of 1.5 mg/kg, read-out: B/P ratio) was 2.18 ± 0.27. For the same compound, in data set [2] (mouse, brain/plasma, intravenous, 60 min after tail vein injection of 1.5 mg/kg, read-out: B/P ratio), the Kp at 60 min was 4.41. Moreover, the Capical in data set [3] came out at 1.65 ± 0.05 µg/mL. Besides, the Cbasolateral in [3] was found to be 0.45 ± 0.07 µg/mL. Further, the Papp A→B at 3 h, 10 µM in “in vitro” worked out at 19.7 ± 0.92 ×10⁻⁶ cm/s.
